{"source": "patent US20250151724A1", "about": "“Liquid Soil Treatments Containing Choline” (Harrell's, LLC, priority 2023, published 2025)", "test_system": "creeping bentgrass", "test": "Experiment No. 1: growth chamber pot trial, foliar GB and choline under heat and mild drought stress", "assay_type": "in vivo", "conditions": "for Root Viability: TTC method", "description": "A growth chamber pot trial was conducted as follows. […] The choline used in this study was supplied in the form of choline chloride from Sigma-Aldrich, Inc. (St. Louis, MO). […] These conditions simulated summer putting green stress. The treatments were as follows: • 1. […] GB at 0.5 oz./1,000 ft^2 every 14 days. • 3. GB at 1.0 oz./1,000 ft^2 every 14 days. • 4. […] The rate and source of fertilization for treatments #2-7 was the same as treatment #1 (fertilized control), so all seven treatments received identical fertility input. […] The term “low rate” is used in this description of Experiment No. 1 to refer to 0.5 oz./1,000 ft^2 treatments, while the term “high rate” is used to refer to 1.0 oz./1,000 ft^2 treatments. […] Photochemical efficiency (PE). Photochemical Efficiency was measured with a chlorophyll fluorometer (OS-50II, Opti-Sciences, Inc., Hudson, NH) biweekly based on the Fv/Fm, which is the ratio of variable chlorophyll fluorescence (Fv) to maximum chlorophyll fluorescence (Fm). […] Chlorophyll content. After clipping yields were weighed, leaf tissues were ground into powder, and chlorophyll was extracted in pure acetone content for 72 hours, and the absorbance was measured using a spectrophotometer. • e. Leaf carotenoids were extracted in the same sample as for chlorophyll content and carotenoids were measured using a spectrophotometer (Zhang et al., 2005). • f. Leaf proline content. […] After centrifuging, the supernatant was collected, and proline was analyzed according to Wu et al., 2017. • g. Root viability. […] Root growth characteristics. At the end of trial, roots from each pot were washed and cleaned. Roots were scanned using WinRHIZOTM technology (Regent Instruments Inc., Quebec, Canada), and root length, root surface area, root diameter, and root volume were calculated. (Zhang et al., 2017). • i. Root biomass of each pot was determined at the end of the trial. Roots were dried at 65° C. for 72 hours before being weighed."}
{"compound": "C[N+](C)(C)CC(=O)[O-]", "note": "[GB, Glycine betaine, reference compound]", "values": [{"measurement": "Clippings dry wt", "setting": "0.5 oz/1000 ft^2, Total", "result": 0.686, "unit": "bc g/pot"}, {"measurement": "Carotenoids", "setting": "0.5 oz/1000 ft^2, day 0", "result": 1.31, "unit": "a mg/g FW"}, {"measurement": "Chlorophyll", "setting": "0.5 oz/1000 ft^2, day 0", "result": 3.43, "unit": "a mg/g FW"}, {"measurement": "Leaf color (1-9, 9 = dark green)", "setting": "0.5 oz/1000 ft^2, day 0", "result": 7.5, "unit": "a"}, {"measurement": "PE (Fv/Fm)", "setting": "0.5 oz/1000 ft^2, day 0", "result": 0.777, "unit": "a"}, {"measurement": "Proline", "setting": "0.5 oz/1000 ft^2, day 0", "result": 19.0, "unit": "a mg/g FW"}, {"measurement": "Carotenoids", "setting": "0.5 oz/1000 ft^2, day 14", "result": 1.31, "unit": "a mg/g FW"}, {"measurement": "Chlorophyll", "setting": "0.5 oz/1000 ft^2, day 14", "result": 3.44, "unit": "a mg/g FW"}, {"measurement": "Clippings dry wt", "setting": "0.5 oz/1000 ft^2, day 14", "result": 0.159, "unit": "ab g/pot"}, {"measurement": "Leaf color (1-9, 9 = dark green)", "setting": "0.5 oz/1000 ft^2, day 14", "result": 7.1, "unit": "bc"}, {"measurement": "PE (Fv/Fm)", "setting": "0.5 oz/1000 ft^2, day 14", "result": 0.744, "unit": "ab"}, {"measurement": "Proline", "setting": "0.5 oz/1000 ft^2, day 14", "result": 21.2, "unit": "bc mg/g FW"}, {"measurement": "Carotenoids", "setting": "0.5 oz/1000 ft^2, day 28", "result": 1.00, "unit": "ab mg/g FW"}, {"measurement": "Chlorophyll", "setting": "0.5 oz/1000 ft^2, day 28", "result": 2.89, "unit": "abc mg/g FW"}, {"measurement": "Clippings dry wt", "setting": "0.5 oz/1000 ft^2, day 28", "result": 0.143, "unit": "b g/pot"}, {"measurement": "Leaf color (1-9, 9 = dark green)", "setting": "0.5 oz/1000 ft^2, day 28", "result": 6.3, "unit": "b"}, {"measurement": "PE (Fv/Fm)", "setting": "0.5 oz/1000 ft^2, day 28", "result": 0.676, "unit": "ab"}, {"measurement": "Proline", "setting": "0.5 oz/1000 ft^2, day 28", "result": 35.1, "unit": "a mg/g FW"}, {"measurement": "Carotenoids", "setting": "0.5 oz/1000 ft^2, day 42", "result": 1.13, "unit": "a mg/g FW"}, {"measurement": "Chlorophyll", "setting": "0.5 oz/1000 ft^2, day 42", "result": 2.80, "unit": "ab mg/g FW"}, {"measurement": "Clippings dry wt", "setting": "0.5 oz/1000 ft^2, day 42", "result": 0.152, "unit": "a g/pot"}, {"measurement": "Leaf color (1-9, 9 = dark green)", "setting": "0.5 oz/1000 ft^2, day 42", "result": 6.9, "unit": "ab"}, {"measurement": "PE (Fv/Fm)", "setting": "0.5 oz/1000 ft^2, day 42", "result": 0.668, "unit": "ab"}, {"measurement": "Proline", "setting": "0.5 oz/1000 ft^2, day 42", "result": 34.9, "unit": "bc mg/g FW"}, {"measurement": "Carotenoids", "setting": "0.5 oz/1000 ft^2, day 56", "result": 1.08, "unit": "ab mg/g FW"}, {"measurement": "Chlorophyll", "setting": "0.5 oz/1000 ft^2, day 56", "result": 2.63, "unit": "abc mg/g FW"}, {"measurement": "Clippings dry wt", "setting": "0.5 oz/1000 ft^2, day 56", "result": 0.233, "unit": "ab g/pot"}, {"measurement": "Leaf color (1-9, 9 = dark green)", "setting": "0.5 oz/1000 ft^2, day 56", "result": 6.3, "unit": "bc"}, {"measurement": "PE (Fv/Fm)", "setting": "0.5 oz/1000 ft^2, day 56", "result": 0.646, "unit": "ab"}, {"measurement": "Proline", "setting": "0.5 oz/1000 ft^2, day 56", "result": 62.9, "unit": "ab mg/g FW"}, {"measurement": "Root Biomass", "setting": "0.5 oz/1000 ft^2, end of trial", "result": 1.34, "unit": "b g/pot"}, {"measurement": "Root Diameter", "setting": "0.5 oz/1000 ft^2, end of trial", "result": 0.189, "unit": "ab mm"}, {"measurement": "Root Length", "setting": "0.5 oz/1000 ft^2, end of trial", "result": 33.1, "unit": "b mm/cm^3"}, {"measurement": "Root Volume", "setting": "0.5 oz/1000 ft^2, end of trial", "result": 9.6, "unit": "a dm^3/cm^3"}, {"measurement": "Root Viability", "setting": "0.5 oz/1000 ft^2, end of trial", "result": 0.877, "unit": "abcd A490/g FW"}, {"measurement": "Clippings dry wt", "setting": "1.0 oz/1000 ft^2, Total", "result": 0.876, "unit": "a g/pot"}, {"measurement": "Carotenoids", "setting": "1.0 oz/1000 ft^2, day 0", "result": 1.30, "unit": "a mg/g FW"}, {"measurement": "Chlorophyll", "setting": "1.0 oz/1000 ft^2, day 0", "result": 3.42, "unit": "a mg/g FW"}, {"measurement": "Leaf color (1-9, 9 = dark green)", "setting": "1.0 oz/1000 ft^2, day 0", "result": 7.5, "unit": "a"}, {"measurement": "PE (Fv/Fm)", "setting": "1.0 oz/1000 ft^2, day 0", "result": 0.743, "unit": "a"}, {"measurement": "Proline", "setting": "1.0 oz/1000 ft^2, day 0", "result": 18.6, "unit": "a mg/g FW"}, {"measurement": "Carotenoids", "setting": "1.0 oz/1000 ft^2, day 14", "result": 1.31, "unit": "a mg/g FW"}, {"measurement": "Chlorophyll", "setting": "1.0 oz/1000 ft^2, day 14", "result": 3.43, "unit": "a mg/g FW"}, {"measurement": "Clippings dry wt", "setting": "1.0 oz/1000 ft^2, day 14", "result": 0.211, "unit": "a g/pot"}, {"measurement": "Leaf color (1-9, 9 = dark green)", "setting": "1.0 oz/1000 ft^2, day 14", "result": 7.3, "unit": "abc"}, {"measurement": "PE (Fv/Fm)", "setting": "1.0 oz/1000 ft^2, day 14", "result": 0.765, "unit": "a"}, {"measurement": "Proline", "setting": "1.0 oz/1000 ft^2, day 14", "result": 21.6, "unit": "bc mg/g FW"}, {"measurement": "Carotenoids", "setting": "1.0 oz/1000 ft^2, day 28", "result": 1.02, "unit": "b mg/g FW"}, {"measurement": "Chlorophyll", "setting": "1.0 oz/1000 ft^2, day 28", "result": 2.71, "unit": "bc mg/g FW"}, {"measurement": "Clippings dry wt", "setting": "1.0 oz/1000 ft^2, day 28", "result": 0.225, "unit": "a g/pot"}, {"measurement": "Leaf color (1-9, 9 = dark green)", "setting": "1.0 oz/1000 ft^2, day 28", "result": 7.0, "unit": "a"}, {"measurement": "PE (Fv/Fm)", "setting": "1.0 oz/1000 ft^2, day 28", "result": 0.715, "unit": "ab"}, {"measurement": "Proline", "setting": "1.0 oz/1000 ft^2, day 28", "result": 25.8, "unit": "b mg/g FW"}, {"measurement": "Carotenoids", "setting": "1.0 oz/1000 ft^2, day 42", "result": 0.99, "unit": "ab mg/g FW"}, {"measurement": "Chlorophyll", "setting": "1.0 oz/1000 ft^2, day 42", "result": 2.47, "unit": "ab mg/g FW"}, {"measurement": "Clippings dry wt", "setting": "1.0 oz/1000 ft^2, day 42", "result": 0.189, "unit": "a g/pot"}, {"measurement": "Leaf color (1-9, 9 = dark green)", "setting": "1.0 oz/1000 ft^2, day 42", "result": 6.5, "unit": "b"}, {"measurement": "PE (Fv/Fm)", "setting": "1.0 oz/1000 ft^2, day 42", "result": 0.673, "unit": "ab"}, {"measurement": "Proline", "setting": "1.0 oz/1000 ft^2, day 42", "result": 38.9, "unit": "abc mg/g FW"}, {"measurement": "Carotenoids", "setting": "1.0 oz/1000 ft^2, day 56", "result": 0.96, "unit": "ab mg/g FW"}, {"measurement": "Chlorophyll", "setting": "1.0 oz/1000 ft^2, day 56", "result": 2.55, "unit": "bc mg/g FW"}, {"measurement": "Clippings dry wt", "setting": "1.0 oz/1000 ft^2, day 56", "result": 0.252, "unit": "a g/pot"}, {"measurement": "Leaf color (1-9, 9 = dark green)", "setting": "1.0 oz/1000 ft^2, day 56", "result": 6.4, "unit": "abc"}, {"measurement": "PE (Fv/Fm)", "setting": "1.0 oz/1000 ft^2, day 56", "result": 0.651, "unit": "a"}, {"measurement": "Proline", "setting": "1.0 oz/1000 ft^2, day 56", "result": 68.5, "unit": "a mg/g FW"}, {"measurement": "Root Biomass", "setting": "1 oz/1000 ft^2, end of trial", "result": 1.64, "unit": "ab g/pot"}, {"measurement": "Root Diameter", "setting": "1 oz/1000 ft^2, end of trial", "result": 0.174, "unit": "b mm"}, {"measurement": "Root Length", "setting": "1 oz/1000 ft^2, end of trial", "result": 40.3, "unit": "ab mm/cm^3"}, {"measurement": "Root Volume", "setting": "1 oz/1000 ft^2, end of trial", "result": 9.7, "unit": "a dm^3/cm^3"}, {"measurement": "Root Viability", "setting": "1 oz/1000 ft^2, end of trial", "result": 1.076, "unit": "ab A490/g FW"}]}
